Experiment in all cases: inhibition of tumour cell growth, NCI panel, 48 h
Assay [1] deals with HT-29.
In assay [2] the test system is OVCAR-8.
For assay [3], the system named is K562.
Assay [4] deals with HCT-116.
Assay [5] concerns UO-31.
Assay [6] concerns COLO 205.
In assay [7] the test system is HCT-15.
Assay [8] relates to EKVX.
Assay [9] deals with SF-539.
For assay [10], the system named is CCRF-CEM.
The subject of assay [11] is HCC 2998.
Assay [12] relates to SK-MEL-2.
Assay [13] deals with NCI-H460.
The test system of assay [14] is CAKI-1.
The subject of assay [15] is U-251.
Assay [16] deals with NCI-H23.
Assay [17] concerns SNB-75.
Assay [18] relates to M14.
Assay [19] relates to ACHN.
Assay [20] has as its system TK-10.

The structures appear in SMILES notation.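 Five compound concentrations were applied to cells in 96-well plates for 48 hours; endpoints were derived by simple linear interpolation of the resulting dose-response curve. Abbreviation: GI50, concentration required for 50% inhibition of growth.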 Activity calls are given as the source filed them. Rule as the data show it: active = GI50 up to about 1.1 µM and inactive = higher.

From ChEMBL document CHEMBL1201862, “PubChem BioAssay data set” (2004) come the findings set out here.

Turning to `COc1cc(C2(c3ncc[nH]3)SSSCC2O)ccc1O` (stereo not drawn), the GI50 in assay [1] was 38 µM (inactive); in assay [2], 36.9 µM (inactive); in assay [3], 23.4 µM (inactive); in assay [4] it was 32.6 µM (inactive); in assay [5] it was 65.9 µM (inactive); in [6] it was 25.6 µM (inactive). Besides, the GI50 was 33.1 µM in assay [7]; 94 µM (inactive) in assay [8]; > 59 µM (inactive) in assay [9]; 11.9 µM (inactive) in assay [10]; 27.9 µM (inactive) in assay [11]; > 100 µM (inactive) in [12]. Also, the GI50 was > 46.2 µM (inactive) in assay [13]; 86.1 µM (inactive) in assay [14]; > 56.2 µM (inactive) in assay [15]; 60.7 µM (inactive) in [16]; > 100 µM (inactive) in [17].
Regarding `CC(=O)OCCCCn1cc(Cn2ccc(=O)n(Cc3cn(CCCCOC(C)=O)nn3)c2=O)nn1`, the GI50 in assay [2] is > 100 µM (inactive); in [4], > 100 µM (inactive); in assay [5], > 100 µM (inactive); in assay [6], > 100 µM (inactive); in assay [7], more than 100 µM; in assay [18], > 100 µM (inactive). Further, the GI50 in [19], in [8], in [9], in [10], in assay [11] and in assay [12] was > 100 µM (inactive) in each case. The GI50 in assay [14], in assay [15], in assay [16], in [20] and in assay [17] was > 100 µM (inactive) in each case.
As to `Nc1nc(N)c2c(n1)NC(=O)c1c(c3ccccc3n1Cc1ccc(Cl)cc1)C2`, the GI50 is 31.3 µM (inactive) in assay [1]; 26.4 µM (inactive) in [2]; 25.6 µM (inactive) in assay [3]; 23.6 µM (inactive) in assay [4]; > 100 µM (inactive) in [5]; 16 µM (inactive) in assay [6]. Also, the GI50 in assay [7] is 17 µM; in [18] it was 37.8 µM (inactive); in assay [8], 33.2 µM (inactive); in assay [9] it was 23.9 µM (inactive); in [10], 17.7 µM (inactive); in [11], 17.8 µM (inactive). In addition, the GI50 was 32.4 µM (inactive) in [12]; 18.2 µM (inactive) in assay [13]; 19.7 µM (inactive) in [14]; 25.8 µM (inactive) in assay [15]; > 100 µM (inactive) in assay [16]; 21.5 µM (inactive) in [20]. Also, in assay [17], the GI50 is 17.9 µM (inactive).
With `COC(=O)[C@H](CC(C)C)NC(=O)[C@H](Cc1ccccc1)N1CC2C=CC1C2` (stereo partly drawn), the GI50 in assay [1] is > 100 µM (inactive); in assay [2] it was > 100 µM (inactive); in assay [3], > 100 µM (inactive); in [5], > 100 µM (inactive); in [6] it was > 100 µM (inactive); in [7], more than 100 µM. In addition, the GI50 in assay [18], in assay [19], in assay [8], in assay [9], in [10] and in assay [11] was > 100 µM (inactive) throughout. The GI50 in [12], in assay [13], in [14], in assay [15], in assay [16] and in [20] was > 100 µM (inactive) each time. For the same compound, the GI50 in assay [17] is > 100 µM (inactive).
Take `O=C1CSC(c2c(O)ccc3ccccc23)N1n1c(S)nnc(/C=C/c2c(O)ccc3ccccc23)c1=O` (stereo not drawn): the GI50 was 1.27 µM (inactive) in assay [1]; 0.467 µM (active) in assay [2]; 0.521 µM (active) in [3]; 0.359 µM (active) in assay [4]; 0.92 µM (active) in [5]; 0.327 µM in assay [7]. Moreover, the GI50 is 0.935 µM (active) in assay [18]; 0.466 µM (active) in assay [19]; 6.15 µM (inactive) in [8]; 0.244 µM (active) in assay [10]; 1.11 µM (active) in assay [11]; 1.17 µM (inactive) in assay [12]. Besides, the GI50 was < 0.01 µM (active) in assay [13]; 0.489 µM (active) in [14]; 1.33 µM (inactive) in assay [15]; 1.98 µM (inactive) in assay [16]; 1.18 µM (inactive) in [20]; 1.5 µM (inactive) in assay [17].
For `O=C(O)CNS(=O)(=O)c1ccc(NC(=O)Nc2ccccc2)cc1`, the GI50 in [1], in [2], in assay [3], in assay [4], in [5] and in assay [6] was > 100 µM (inactive) in each case. Besides, the GI50 is more than 100 µM in [7]; > 100 µM (inactive) in assay [8]; > 100 µM (inactive) in assay [9]; > 100 µM (inactive) in assay [10]; > 100 µM (inactive) in assay [11]; > 100 µM (inactive) in assay [12]. In addition, the GI50 in [13], in [14], in assay [15], in assay [16] and in assay [17] was > 100 µM (inactive) throughout.
`CC(C)C1NC(=O)CC(c2ccccc2)N(N=O)C1c1ccccc1` (stereo not drawn): the GI50 in [1] was > 100 µM (inactive); in assay [2] it was > 100 µM (inactive); in assay [3], 71.4 µM (inactive); in assay [4], > 100 µM (inactive); in [5], > 100 µM (inactive); in assay [6] it was > 100 µM (inactive). The GI50 in [7] was more than 100 µM; in assay [8], > 100 µM (inactive); in assay [9], > 100 µM (inactive); in [10], > 100 µM (inactive); in [11], > 100 µM (inactive); in [12] it was > 100 µM (inactive). Further, the GI50 in assay [13] was > 100 µM (inactive); in assay [14], > 100 µM (inactive); in [15], > 100 µM (inactive); in [16], > 80.9 µM (inactive); in [17], > 100 µM (inactive).
In the case of `O=C1C2=C(C3=NCCc4c[nH]c1c43)c1c(Br)cc(Br)cc1CCN2`, the GI50 is 2.45 µM (inactive) in assay [1]; 2.98 µM (inactive) in assay [2]; 2.68 µM (inactive) in assay [3]; 1.84 µM (inactive) in assay [4]; 6.22 µM (inactive) in assay [5]; 1.29 µM (inactive) in [6]. Moreover, the GI50 was 2.21 µM in assay [7]; 3.01 µM (inactive) in assay [8]; 3.42 µM (inactive) in assay [9]; 2.58 µM (inactive) in [10]; 2.01 µM (inactive) in assay [11]; 3.33 µM (inactive) in assay [12]. The GI50 in assay [13] was 3.03 µM (inactive); in [14], 13.4 µM (inactive); in assay [15], 3.66 µM (inactive); in assay [16], 1.79 µM (inactive); in [17] it was 8.93 µM (inactive).
On to `c1ccc(COC2(OCc3ccccc3)CC3OC2C2NN=NC32)cc1` (stereo not drawn), for which the GI50 in assay [1] was 20.8 µM (inactive); in assay [3], 15.6 µM (inactive); in assay [5], 29.7 µM (inactive); in [6] it was 37.7 µM (inactive); in assay [7], 26 µM; in assay [18], 18.5 µM (inactive). The GI50 in assay [19] was > 100 µM (inactive); in assay [9] it was 22.1 µM (inactive); in [10], 11.3 µM (inactive); in assay [11] it was > 10 µM (inactive); in assay [12] it was > 10 µM (inactive); in [13] it was 46.1 µM (inactive). Further, the GI50 is 44 µM (inactive) in assay [14], 18.1 µM (inactive) in [15], 17.5 µM (inactive) in assay [16] and 16.9 µM (inactive) in assay [17].
As for `Cc1c2cc[n+](Cc3ccc(I)cc3)cc2c(C)c2c1[nH]c1ccccc12`, the GI50 in [1] was 0.857 µM (active); in [2] it was 0.685 µM (active); in assay [3], 0.643 µM (active); in [4], 0.574 µM (active); in [5], 3.14 µM (inactive); in assay [6], 0.61 µM (active). Besides, the GI50 in [7] is 7.8 µM; in assay [8], 1.19 µM (inactive); in assay [9], 1.74 µM (inactive); in assay [10], 0.448 µM (active); in assay [11] it was 0.881 µM (active); in assay [12] it was 0.614 µM (active). Besides, the GI50 in assay [13] was 0.281 µM (active); in assay [14], 0.714 µM (active); in assay [15], 0.21 µM (active); in assay [16], 0.65 µM (active); in [17], 0.0914 µM (active).
In the case of `Cc1nc(-c2cccnc2)sc1C(=O)CC(=O)C(=O)Nc1cccc(NC(=O)C(=O)CC(=O)c2sc(-c3cccnc3)nc2C)n1`, the GI50 in assay [1], in assay [2], in [3], in assay [4], in [5] and in assay [6] was > 100 µM (inactive) throughout. In addition, the GI50 in assay [7] was more than 100 µM; in assay [18], > 100 µM (inactive); in [19] it was > 100 µM (inactive); in [8], > 100 µM (inactive); in assay [9] it was > 100 µM (inactive); in assay [10], > 100 µM (inactive). For the same compound, the GI50 in assay [11], in [12], in assay [13], in assay [14], in assay [15] and in assay [16] was > 100 µM (inactive) each time. Besides, the GI50 in assay [17] was 68.5 µM (inactive).
